According to ChEMBL document CHEMBL1201862, “PubChem BioAssay data set” (2004):
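Step 1: Grow cells in 96-well plates. Step 2: Expose to compound for 48 hours at 5 concentrations. Step 3: Interpolate endpoints linearly; if unreached, use highest concentration. Here, GI50 denotes the concentration required for 50% inhibition of growth.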 Active and inactive are the calls of the source. Cut-off read from the data, not from the text of the source: active = GI50 up to about 1.1 µM and inactive = higher.

Tests used:
Assay in all cases: NCI tumour cell line growth inhibition, 48 h
[1] = test system: DU-145
[2] = test system: MCF7
[3] = test system: SK-OV-3
[4] = test system: SR
[5] = test system: A549
[6] = test system: K562
[7] = test system: Hs-578T
[8] = test system: MDA-MB-435
[9] = test system: CCRF-CEM
[10] = test system: MDA-MB-231
[11] = test system: U-251
[12] = test system: UO-31
[13] = test system: SF-539
[14] = test system: 786-0
[15] = test system: RXF 393
[16] = test system: MDA-N
[17] = test system: M14
[18] = test system: LOX IMVI
[19] = test system: SN12C
[20] = test system: HCT-116
[21] = test system: SK-MEL-2
[22] = test system: MOLT-4
[23] = test system: RPMI-8226
[24] = test system: ACHN
[25] = test system: HOP-62
[26] = test system: PC-3
[27] = test system: HT-29
[28] = test system: OVCAR-8
[29] = test system: SF-295
[30] = test system: SK-MEL-28
[31] = test system: HCC 2998
[32] = test system: UACC-257
[33] = test system: SNB-19
[34] = test system: IGROV-1
[35] = test system: OVCAR-5
[36] = test system: T47D
[37] = test system: NCI-H522
[38] = test system: EKVX
[39] = test system: NCI-H460
[40] = test system: HCT-15
[41] = test system: A498
[42] = test system: NCI/ADR-RES
[43] = test system: SNB-75
[44] = test system: COLO 205
[45] = test system: NCI-H226
[46] = test system: TK-10
[47] = test system: Malme-3M
[48] = test system: KM12
[49] = test system: SW-620
[50] = test system: CAKI-1
[51] = test system: HOP-92
[52] = test system: NCI-H23
[53] = test system: SK-MEL-5
[54] = test system: OVCAR-4
[55] = test system: SF-268
[56] = test system: UACC-62
[57] = test system: OVCAR-3
[58] = test system: HL-60

**Q.** Which results are given for `CCCCCNc1nonc1N`?
**A.** GI50 [1]: > 100 µM (inactive); GI50 [2]: > 100 µM (inactive); GI50 [3]: > 100 µM (inactive); GI50 [4]: > 100 µM (inactive); GI50 [5]: > 100 µM (inactive); GI50 [6]: > 100 µM (inactive); GI50 [7]: > 72.8 µM (inactive); GI50 [8]: > 100 µM (inactive); GI50 [9]: > 31.6 µM (inactive); GI50 [10]: > 100 µM (inactive); GI50 [11]: > 100 µM (inactive); GI50 [12]: > 100 µM (inactive); GI50 [13]: > 100 µM (inactive); GI50 [14]: > 100 µM (inactive); GI50 [15]: > 100 µM (inactive); GI50 [16]: > 100 µM (inactive); GI50 [17]: > 100 µM (inactive); GI50 [18]: > 100 µM (inactive); GI50 [19]: > 100 µM (inactive); GI50 [20]: > 100 µM (inactive); GI50 [21]: > 100 µM (inactive); GI50 [22]: > 100 µM (inactive); GI50 [23]: > 100 µM (inactive); GI50 [24]: > 100 µM (inactive); GI50 [25]: > 100 µM (inactive); GI50 [26]: > 100 µM (inactive); GI50 [27]: > 100 µM (inactive); GI50 [28]: > 100 µM (inactive); GI50 [29]: > 100 µM (inactive); GI50 [30]: > 100 µM (inactive); GI50 [31]: > 100 µM (inactive); GI50 [32]: > 100 µM (inactive); GI50 [33]: > 100 µM (inactive); GI50 [34]: > 100 µM (inactive); GI50 [35]: > 100 µM (inactive); GI50 [36]: > 100 µM (inactive); GI50 [37]: > 100 µM (inactive); GI50 [38]: > 100 µM (inactive); GI50 [39]: > 100 µM (inactive); GI50 [40]: > 100 µM; GI50 [41]: > 84.9 µM (inactive); GI50 [42]: > 100 µM (inactive); GI50 [43]: > 100 µM (inactive); GI50 [44]: > 100 µM (inactive); GI50 [45]: > 100 µM (inactive); GI50 [46]: > 100 µM (inactive); GI50 [47]: > 100 µM (inactive); GI50 [48]: > 100 µM (inactive); GI50 [49]: > 100 µM (inactive); GI50 [50]: > 100 µM (inactive); GI50 [51]: > 100 µM (inactive); GI50 [52]: > 100 µM (inactive); GI50 [53]: > 100 µM (inactive); GI50 [54]: > 88.3 µM (inactive); GI50 [55]: > 100 µM (inactive); GI50 [56]: > 100 µM (inactive); GI50 [57]: > 100 µM (inactive)

**Q.** What does the source list for `CSCC[C@H](NC(=O)[C@H](CC(C)C)NC(=O)[C@@H](Cc1ccccc1)NC(=O)CNC(=O)[C@@H](NC(=O)[C@H](C)NC(=O)[C@H](Cc1c[nH]c2ccccc12)NC(=O)[C@H](CCC(N)=O)NC(=O)[C@H](N)CC(N)=O)C(C)C)C(N)=O`?
**A.** GI50 [1]: > 12.5 µM (inactive); GI50 [2]: > 12.5 µM (inactive); GI50 [3]: > 12.5 µM (inactive); GI50 [4]: 0.0269 µM (active); GI50 [5]: > 12.5 µM (inactive); GI50 [6]: > 12.5 µM (inactive); GI50 [7]: > 12.5 µM (inactive); GI50 [8]: > 12.5 µM (inactive); GI50 [9]: > 12.5 µM (inactive); GI50 [10]: > 12.5 µM (inactive); GI50 [11]: > 12.5 µM (inactive); GI50 [13]: > 12.5 µM (inactive); GI50 [58]: > 12.5 µM (inactive); GI50 [14]: > 12.5 µM (inactive); GI50 [15]: > 12.5 µM (inactive); GI50 [16]: > 12.5 µM (inactive); GI50 [17]: > 12.5 µM (inactive); GI50 [18]: > 12.5 µM (inactive); GI50 [19]: > 12.5 µM (inactive); GI50 [20]: > 12.5 µM (inactive); GI50 [22]: > 12.5 µM (inactive); GI50 [23]: > 12.5 µM (inactive); GI50 [24]: > 12.5 µM (inactive); GI50 [25]: > 12.5 µM (inactive); GI50 [26]: > 12.5 µM (inactive); GI50 [27]: > 12.5 µM (inactive); GI50 [28]: > 12.5 µM (inactive); GI50 [29]: > 12.5 µM (inactive); GI50 [30]: > 12.5 µM (inactive); GI50 [31]: > 12.5 µM (inactive); GI50 [32]: > 12.5 µM (inactive); GI50 [33]: > 12.5 µM (inactive); GI50 [34]: > 12.5 µM (inactive); GI50 [35]: > 12.5 µM (inactive); GI50 [36]: > 12.5 µM (inactive); GI50 [38]: > 12.5 µM (inactive); GI50 [39]: > 12.5 µM (inactive); GI50 [40]: > 12.5 µM; GI50 [41]: > 12.5 µM (inactive); GI50 [42]: > 12.5 µM (inactive); GI50 [43]: > 12.5 µM (inactive); GI50 [44]: > 12.5 µM (inactive); GI50 [45]: > 12.5 µM (inactive); GI50 [46]: > 12.5 µM (inactive); GI50 [47]: > 12.5 µM (inactive); GI50 [48]: > 12.5 µM (inactive); GI50 [49]: > 12.5 µM (inactive); GI50 [50]: > 12.5 µM (inactive); GI50 [51]: > 12.5 µM (inactive); GI50 [52]: > 12.5 µM (inactive); GI50 [53]: > 12.5 µM (inactive); GI50 [54]: > 12.5 µM (inactive); GI50 [55]: > 12.5 µM (inactive); GI50 [56]: > 12.5 µM (inactive); GI50 [57]: > 12.5 µM (inactive)

**Q.** Which results are given for `CC1=NN(c2cccc(Cl)c2)C2(SCC(=O)N2c2nc3ccccc3s2)/C1=C\c1ccc(N(C)C)cc1` (stereo not drawn)?
**A.** GI50 [1]: > 100 µM (inactive); GI50 [2]: 38.7 µM (inactive); GI50 [3]: 17.5 µM (inactive); GI50 [4]: 58.5 µM (inactive); GI50 [6]: 43.8 µM (inactive); GI50 [7]: 21 µM (inactive); GI50 [8]: > 100 µM (inactive); GI50 [9]: 66.1 µM (inactive); GI50 [10]: 40.7 µM (inactive); GI50 [11]: 35.7 µM (inactive); GI50 [12]: > 100 µM (inactive); GI50 [13]: 52.2 µM (inactive); GI50 [58]: > 100 µM (inactive); GI50 [14]: 43.8 µM (inactive); GI50 [15]: 21.8 µM (inactive); GI50 [16]: > 100 µM (inactive); GI50 [17]: > 100 µM (inactive); GI50 [18]: > 100 µM (inactive); GI50 [20]: > 100 µM (inactive); GI50 [21]: 23.9 µM (inactive); GI50 [22]: 48.5 µM (inactive); GI50 [23]: 44.2 µM (inactive); GI50 [24]: 26.1 µM (inactive); GI50 [25]: 19.4 µM (inactive); GI50 [26]: > 100 µM (inactive); GI50 [27]: > 100 µM (inactive); GI50 [28]: 58.9 µM (inactive); GI50 [29]: 42.2 µM (inactive); GI50 [30]: > 100 µM (inactive); GI50 [31]: 88.7 µM (inactive); GI50 [32]: 56.8 µM (inactive); GI50 [34]: 54.7 µM (inactive); GI50 [35]: > 100 µM (inactive); GI50 [36]: 34.8 µM (inactive); GI50 [37]: 65.8 µM (inactive); GI50 [38]: > 100 µM (inactive); GI50 [39]: 20.9 µM (inactive); GI50 [40]: 56.1 µM; GI50 [41]: 27.9 µM (inactive); GI50 [42]: > 100 µM (inactive); GI50 [45]: 76 µM (inactive); GI50 [46]: 33 µM (inactive); GI50 [48]: > 100 µM (inactive); GI50 [49]: > 100 µM (inactive); GI50 [50]: 85.9 µM (inactive); GI50 [51]: 23.7 µM (inactive); GI50 [52]: 31.8 µM (inactive); GI50 [53]: 39.7 µM (inactive); GI50 [54]: 93.5 µM (inactive); GI50 [55]: 38.7 µM (inactive); GI50 [57]: 48.5 µM (inactive)
